# In publication PMC6627609, “Targeting Quorum Sensing: High-Throughput Screening to Identify Novel LsrK Inhibitors” (International Journal of Molecular Sciences, 2019):
# Structures can show the parent of a compound that is named as a salt.
# Biological target: LsrK (Salmonella typhimurium, UniProt Q8ZKQ6)
# Experiment: biochemical
# Type: biochemical, S. typhimurium
# Conditions: not given
# Chain of LsrK (Q8ZKQ6 whole entry): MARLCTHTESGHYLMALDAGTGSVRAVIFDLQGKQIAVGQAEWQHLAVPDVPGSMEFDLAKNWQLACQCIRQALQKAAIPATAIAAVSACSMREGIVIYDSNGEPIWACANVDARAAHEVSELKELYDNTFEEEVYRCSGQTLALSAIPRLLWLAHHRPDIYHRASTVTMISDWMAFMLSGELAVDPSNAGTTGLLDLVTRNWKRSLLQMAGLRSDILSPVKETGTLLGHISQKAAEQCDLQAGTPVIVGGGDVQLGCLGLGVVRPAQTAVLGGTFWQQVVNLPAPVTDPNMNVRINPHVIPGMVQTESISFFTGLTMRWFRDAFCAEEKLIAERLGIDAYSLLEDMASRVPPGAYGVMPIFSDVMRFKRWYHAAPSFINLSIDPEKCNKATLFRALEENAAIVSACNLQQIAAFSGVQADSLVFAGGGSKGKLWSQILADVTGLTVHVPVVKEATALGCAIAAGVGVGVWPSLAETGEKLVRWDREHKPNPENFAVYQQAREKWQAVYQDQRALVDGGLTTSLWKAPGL
row,SMILES,inhibition at 50 µM [%]
1,CO/N=C(\C(=O)N[C@@H]1C(=O)N2C(C(=O)OC(C)OC(C)=O)=C(COC(N)=O)CS[C@H]12)c1ccco1 (some centres unmarked) [CEFUROXIME AXETIL],2
2,CO/N=C(\C(=O)N[C@@H]1C(=O)N2C(C(=O)O)=C(COC(N)=O)CS[C@H]12)c1ccco1 [CEFUROXIME SODIUM],3
3,Cc1ccc(-c2cc(C(F)(F)F)nn2-c2ccc(S(N)(=O)=O)cc2)cc1 [CELECOXIB],1
4,CC(=O)OCC1=C(C(=O)O)N2C(=O)[C@@H](NC(=O)Cc3cccs3)[C@H]2SC1 [CEPHALOTHIN SODIUM],1
5,O=C(O)COCCN1CCN(C(c2ccccc2)c2ccc(Cl)cc2)CC1 (centres unmarked) [CETIRIZINE HYDROCHLORIDE],1
6,CCCCCCCCCCCCCCCC[N+](C)(C)C [CETRIMONIUM BROMIDE],125
7,C[C@H](CCC(=O)O)[C@H]1CC[C@H]2[C@@H]3[C@H](O)C[C@@H]4C[C@H](O)CC[C@]4(C)[C@H]3CC[C@]12C [CHENODIOL],2
8,COc1cc(-c2ccc(/N=N/c3ccc4c(S(=O)(=O)O)cc(S(=O)(=O)O)c(N)c4c3O)c(OC)c2)ccc1/N=N/c1ccc2c(S(=O)(=O)O)cc(S(=O)(=O)O)c(N)c2c1O [CHICAGO SKY BLUE],41
9,OC[C@@H](O)[C@H]1O[C@@H]2O[C@H](C(Cl)(Cl)Cl)O[C@@H]2[C@H]1O [CHLORALOSE],1
10,CC(=O)O[C@]1(C(C)=O)CC[C@H]2[C@@H]3C=C(Cl)C4=CC(=O)CC[C@]4(C)[C@H]3CC[C@@]21C [CHLORMADINONE ACETATE],1
11,[H]/N=C(\N/C(=N/[H])Nc1ccc(Cl)cc1)NC(C)C [CHLOROGUANIDE HYDROCHLORIDE],1
12,NS(=O)(=O)c1cc2c(cc1Cl)N=CNS2(=O)=O [CHLOROTHIAZIDE],0
13,Oc1c(Cl)cc(Cl)c2cccnc12 [CHLOROXINE],13
14,CCCNC(=O)NS(=O)(=O)c1ccc(Cl)cc1 [CHLORPROPAMIDE],1
15,CN(C)CC/C=C1/c2ccccc2Sc2ccc(Cl)cc21 [CHLORPROTHIXENE HYDROCHLORIDE],2
16,CCOP(=S)(OCC)Oc1nc(Cl)c(Cl)cc1Cl [CHLORPYRIFOS],0
17,Cc1ccc2c(Cl)cc(Cl)c(O)c2n1 [CHLORQUINALDOL],0
18,CN(C)[C@@H]1C(O)=C(C(N)=O)C(=O)[C@@]2(O)C(O)=C3C(=O)c4c(O)ccc(Cl)c4[C@@](C)(O)[C@H]3C[C@@H]12 [CHLORTETRACYCLINE HYDROCHLORIDE],77
19,C[C@H](CCC(=O)O)[C@H]1CC[C@H]2[C@@H]3CCC4CCCC[C@]4(C)[C@H]3C=C[C@]12C (some centres unmarked) [CHOL-11-ENIC ACID],45
20,C=C1CC[C@H](O)C/C1=C/C=C1\CCC[C@]2(C)[C@@H]([C@H](C)CCCC(C)C)CC[C@@H]12 [CHOLECALCIFEROL],90
21,CC(C)CCC[C@@H](C)[C@H]1CC[C@H]2[C@@H]3CC=C4C[C@@H](O)CC[C@]4(C)[C@H]3CC[C@]12C [CHOLESTEROL],0

row,SMILES,inhibition at 50 µM [%]
1,C[C@H](CCC(=O)O)[C@H]1CC[C@H]2[C@@H]3[C@H](O)C[C@@H]4C[C@H](O)CC[C@]4(C)[C@H]3C[C@H](O)[C@]12C [CHOLIC ACID],0
2,COc1cc(OC)c2c(=O)cc(-c3ccccc3)oc2c1 [CHRYSIN DIMETHYL ETHER],1
3,O=c1cc(-c2ccccc2)oc2cc(O)cc(O)c12 [CHRYSIN],3
4,Cc1cc(O)c2c(c1)C(=O)c1cccc(O)c1C2=O [CHRYSOPHANOL],1
5,COC(=O)C[C@H]1C2(C)CC34OC5(C)O[C@@]6([C@H](OC)C(OC(=O)C(C)C)[C@]7(C)C(/C(=C(/OC)C(C)C)C(=O)O[C@H]7c7ccoc7)[C@@]6(O5)[C@H](OC)[C@@]3(OC)C2OC(C)=O)[C@]14C (some centres unmarked) [CHUKRASIN METHYL ETHER],1
6,O=C(O)CCCCCCCCCCCC[C@@H]1C=CCC1 [CH[…]],156
7,O=C1CCc2cc(OCCCCc3nnnn3C3CCCCC3)ccc2N1 [CILOSTAZOL],2
8,C=C[C@H]1CN2CC[C@H]1C[C@H]2[C@H](O)c1ccnc2ccccc12 [CINCHONIDINE],0
9,C=C[C@H]1C[N@@]2CC[C@H]1C[C@@H]2[C@@H](O)c1ccnc2ccccc12 [CINCHONINE],1
10,O=C(O)c1cc(-c2ccccc2)nc2ccccc12 [CINCHOPHEN],6
11,CC12CCC(CC1)C(C)(C)O2 [CINEOLE],1
12,O=C(O)c1cn(C2CC2)c2cc(N3CCNCC3)c(F)cc2c1=O [CIPROFLOXACIN],1
13,CC[C@H]1OC(=O)[C@H](C)[C@@H](O[C@H]2C[C@@](C)(OC)[C@@H](O)[C@H](C)O2)[C@H](C)[C@@H](O[C@@H]2O[C@H](C)C[C@H](N(C)C)[C@H]2O)[C@](C)(OC)C[C@@H](C)C(=O)[C@H](C)[C@@H](O)[C@]1(C)O [CLARITHROMYCIN],0
14,CCC[C@@H]1C[C@@H](C(=O)N[C@@H]([C@H]2O[C@H](SC)[C@H](O)[C@@H](O)[C@H]2O)[C@H](C)Cl)N(C)C1 [CLINDAMYCIN HYDROCHLORIDE],0
15,Oc1c(I)cc(Cl)c2cccnc12 [CLIOQUINOL],1
16,CCC(=O)O[C@]1(C(=O)CCl)[C@@H](C)C[C@H]2[C@@H]3CCC4=CC(=O)C=C[C@]4(C)[C@@]3(F)[C@@H](O)C[C@@]21C [CLOBETASOL PROPIONATE],2
17,CC(C)/N=c1\cc2n(-c3ccc(Cl)cc3)c3ccccc3nc-2cc1Nc1ccc(Cl)cc1 [CLOFAZIMINE],0
18,CC(C)(C)CC(C)(C)c1ccc(O)c(Cc2ccc(Cl)cc2Cl)c1 [CLOFOCTOL],2
19,COC(=O)[C@H](c1ccccc1Cl)N1CCc2sccc2C1 [CLOPIDOGREL SULFATE],11
20,Cc1nc(C)c(Cl)c(O)c1Cl [CLOPIDOL],2
21,C=C[C@@]1(C)CC(=O)[C@]2(O)[C@@]3(C)[C@@H](O)CCC(C)(C)[C@@H]3[C@H](O)[C@H](OC(C)=O)[C@@]2(C)O1 [COLFORSIN],1

# Same assay, conditions: 50 µM
row,SMILES,Inhibition (%)
1,CO/N=C(/C(=O)N[C@@H]1C(=O)N2C(C(=O)[O-])=C(CSc3nc(=O)c([O-])nn3C)CS[C@H]12)c1csc(N)n1.O.O.O.[Na+].[Na+] [CEFTRIAXONE SODIUM TRIHYDRATE],0
2,OC[C@H]1O[C@@H](O[C@H]2[C@H](O)[C@@H](O)[C@H](O)O[C@@H]2CO)[C@H](O)[C@@H](O)[C@@H]1O [CELLOBIOSE (D[+])],0
3,CC(=O)OCC1=C(C(=O)[O-])N2C(=O)[C@@H](NC(=O)CCCC(N)C(=O)O)[C@H]2SC1.[Na+] (some centres unmarked) [CEPHALOSPORIN C SODIUM],32
4,N.N.[Cl][Pt][Cl] [CISPLATIN],2
5,C/C1=C2/[N-][C@H]([C@H](CC(N)=O)[C@@]2(C)CCC(=O)NC[C@@H](C)OP(=O)([O-])O[C@H]2[C@@H](O)[C@@H](n3cnc4cc(C)c(C)cc43)O[C@@H]2CO)[C@]2(C)N=C(/C(C)=C3N=C(/C=C4N=C1[C@@H](CCC(N)=O)C\4(C)C)[C@@H](CCC(N)=O)[C@]\3(C)CC(N)=O)[C@@H](CCC(N)=O)[C@]2(C)CC(N)=O.[CH2-][C@H]1O[C@@H](n2cnc3c(N)ncnc32)[C@H](O)[C@@H]1O.[Co] [COENZYME B12],20
